Experimental findings from patent US11203600B2 (Denali Therapeutics Inc., priority 2017, dated 2021) are described below.

A value given as a limit tells only on which side of the number the result lay.

For one assay, the target named is GST-hRIPK1 (8-327) (Homo sapiens (Human), UniProt Q13546). The experiment in a line: Fluorescent Polarization Binding (FP Binding) assay, RIPK1. Particulars: 10 nM GST-hRIPK1 (8-327), 5 nM fluorescent-labeled ligand, RT, 30 min, mean of at least two independent experiments. The essentials: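 Binding by fluorescence polarisation at RT: 10 nM baculovirus-expressed GST-hRIPK1 (8-327) and 5 nM fluorescent ligand, 30 min, in 50 mM HEPES pH 7.5, 50 mM MgCl2, 0.02% CHAPS, 1% DMSO. FP read at ex 531/em 595 nm. IC50 from normalised percent inhibition, mean of ≥2 experiments.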
GST-hRIPK1 (8-327), sequence (Q13546 8-327): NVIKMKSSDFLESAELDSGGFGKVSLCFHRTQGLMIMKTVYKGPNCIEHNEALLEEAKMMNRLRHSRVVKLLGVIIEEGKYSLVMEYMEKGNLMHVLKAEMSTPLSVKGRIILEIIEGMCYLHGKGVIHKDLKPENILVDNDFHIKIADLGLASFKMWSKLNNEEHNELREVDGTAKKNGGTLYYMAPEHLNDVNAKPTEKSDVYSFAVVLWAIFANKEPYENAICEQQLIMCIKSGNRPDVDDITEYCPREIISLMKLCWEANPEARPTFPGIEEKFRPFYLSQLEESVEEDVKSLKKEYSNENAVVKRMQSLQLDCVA
In the case of `N#Cc1cncc2c1OCCN(C(=O)C1(F)CCN(c3ccc4nccn4n3)CC1)C2` [Example 109, 4-(4-fluoro-1-imidazo[1,2-b]pyridazin-6-yl-piperidine-4-carbonyl)-3,5-dihydro-2H-pyrido[3,4-f][1,4]oxazepine-9-carbonitrile], the IC50 was 100 to 1000 nM.
`CSc1nc(N2CCC(F)(C(=O)N3CCOc4c(C#N)cncc4C3)CC2)ncc1F` [Example 126, 4-[4-fluoro-1-(5-fluoro-4-methylsulfanyl-pyrimidin-2-yl)piperidine-4-carbonyl]-3,5-dihydro-2H-pyrido[3,4-f][1,4]oxazepine-9-carbonitrile] gave an IC50 of 0.1 to 100 nM.
On the same count and under the same terms, as for `CSC(C)(C)C(=O)N1CCOc2c(C#N)cncc2C1` [Example 148, 4-(2-methyl-2-methylsulfanyl-propanoyl)-3,5-dihydro-2H-pyrido[3,4-f][1,4]oxazepine-9-carbonitrile], the figure is 0.1 to 100 nM; as for `N#Cc1cncc2c1OCCN(C(=O)C1(C(F)F)CCC1)C2` [Example 49, 4-[1-(difluoromethyl)cyclobutanecarbonyl]-3,5-dihydro-2H-pyrido[3,4-f][1,4]oxazepine-9-carbonitrile], 0.1 to 100 nM.
Consider `C[C@@H]1C[C@]1(C)C(=O)N1CCOc2c(C#N)cncc2C1` [Example 65, 4-[(1S,2R)-1,2-dimethylcyclopropanecarbonyl]-3,5-dihydro-2H-pyrido[3,4-f][1,4]oxazepine-9-carbonitrile], for which the IC50 lay in the range of 100 to 1000 nM.
The same measure, in the same setting: as for `COC1(C(=O)N2CCOc3c(F)cncc3C2)CCN(c2ncc(F)c(OCC(F)F)n2)CC1` [Example 132, (1-(4-(2,2-difluoroethoxy)-5-fluoropyrimidin-2-yl)-4-methoxypiperidin-4-yl)(9-fluoro-2,3-dihydropyrido[3,4-f][1,4]oxazepin-4(5H)-yl)methanone], the figure is 0.1 to 100 nM; as for `CC1(C(=O)N2CCOc3c(C#N)cncc3C2)CC1(F)F` (centres unmarked) [Example 50, 4-(2,2-difluoro-1-methyl-cyclopropanecarbonyl)-3,5-dihydro-2H-pyrido[3,4-f][1,4]oxazepine-9-carbonitrile], 100 to 1000 nM.
Still for that read-out and setting: as for `COC1(C(=O)N2CCOc3c(F)cncc3C2)CCN(c2ncccn2)CC1` [Example 135, (9-fluoro-3,5-dihydro-2H-pyrido[3,4-f][1,4]oxazepin-4-yl)-(4-methoxy-1-pyrimidin-2-yl-4-piperidyl)methanone], the figure is 0.1 to 100 nM.
Still for that read-out and setting: in the case of `CC(C)(C(=O)N1CCCc2ccccc2C1)C(F)F` [Example 5, 3,3-difluoro-2,2-dimethyl-1-(1,3,4,5-tetrahydro-2-benzazepin-2-yl)propan-1-one] it was 100 to 1000 nM; in that of `N#Cc1cnc(N2CCC(F)(C(=O)N3CCOc4c(F)cncc4C3)CC2)nc1` [Example 159, 2-[4-fluoro-4-(9-fluoro-3,5-dihydro-2H-pyrido[3,4-f][1,4]oxazepine-4-carbonyl)-1-piperidyl]pyrimidine-5-carbonitrile], 100 to 1000 nM; in that of `N#Cc1cncc2c1OCCN(C(=O)C(F)(F)C(F)(F)C(F)(F)F)C2` [Example 143, 4-(2,2,3,3,4,4,4,-heptafluorobutanoyl)-3,5-dihydro-2H-pyrido[3,4-f][1,4]oxazepine-9-carbonitrile], over 1000 nM.
`CC(C)(C(=O)N1CCOc2c(Cl)cncc2C1)C(F)F` [Example 61, 1-(9-chloro-3,5-dihydro-2H-pyrido[3,4-f][1,4]oxazepin-4-yl)-3,3-difluoro-2,2-dimethyl-propan-1-one] had an IC50 of 100 to 1000 nM.
Same read-out and setting: as for `CCC1(C(=O)N2CCOc3c(C#N)cncc3C2)CCC1` [Example 64, 4-(1-ethylcyclobutanecarbonyl)-3,5-dihydro-2H-pyrido[3,4-f][1,4]oxazepine-9-carbonitrile], the figure is 100 to 1000 nM; as for `CCC(C)(CC)C(=O)N1CCOc2c(C#N)cncc2C1` [Example 151, 4-(2-ethyl-2-methyl-butanoyl)-3,5-dihydro-2H-pyrido[3,4-f][1,4]oxazepine-9-carbonitrile], 0.1 to 100 nM; as for `COc1ccc(N2CCC(F)(C(=O)N3CCOc4c(C#N)cncc4C3)CC2)nn1` [Example 115, 4-[4-fluoro-1-(6-methoxypyridazin-3-yl)piperidine-4-carbonyl]-3,5-dihydro-2H-pyrido[3,4-f][1,4]oxazepine-9-carbonitrile], 100 to 1000 nM.
On the same count and under the same terms, in the case of `CCC(C)(OC)C(=O)N1CCOc2c(C#N)cncc2C1` (centres unmarked) [Example 153, 4-(2-methoxy-2-methyl-butanoyl)-3,5-dihydro-2H-pyrido[3,4-f][1,4]oxazepine-9-carbonitrile] it was 0.1 to 100 nM.
The same measure, in the same setting: in the case of `Cn1ccc2nc(N3CCC(F)(C(=O)N4CCOc5c(C#N)cncc5C4)CC3)ncc21` [Example 108, 4-[4-fluoro-1-(5-methylpyrrolo[3,2-d]pyrimidin-2-yl)piperidine-4-carbonyl]-3,5-dihydro-2H-pyrido[3,4-f][1,4]oxazepine-9-carbonitrile] it was 100 to 1000 nM.
As for `CC(C)(C)C(=O)N1CCOc2c(F)cncc2C1` [Example 80, 1-(9-fluoro-3,5-dihydro-2H-pyrido[3,4-f][1,4]oxazepin-4-yl)-2,2-dimethyl-propan-1-one], the IC50 is 100 to 1000 nM.
On the same count and under the same terms, in the case of `CC1CN(C(=O)C(C)(C)C(F)F)Cc2ccccc2O1` (centres unmarked) [Example 36, 3,3-difluoro-2,2-dimethyl-1-(2-methyl-2,3-dihydrobenzo[f][1,4]oxazepin-4(5H)-yl)propan-1-one] it was over 1000 nM; in that of `COC1(C(=O)N2CCOc3c(F)cncc3C2)CCN(c2ncc(F)c(OCCN(C)C)n2)CC1` [Example 136], over 1000 nM.
In turn, `COc1nc(N2CCC(OC)(C(=O)N3CCOc4c(C#N)cncc4C3)CC2)nc(C)c1F` [Example 195, 4-[1-(5-fluoro-4-methoxy-6-methyl-pyrimidin-2-yl)-4-methoxy-piperidine-4-carbonyl]-3,5-dihydro-2H-pyrido[3,4-f][1,4]oxazepine-9-carbonitrile] yielded a concentration for half-maximal inhibition (IC50) of over 1000 nM.
For the molecule `N#Cc1cncc2c1OCCN(C(=O)C1CCCN(c3ncc(F)cn3)CC1)C2` (centres unmarked) [Example 92, 4-[1-(5-fluoropyrimidin-2-yl)azepane-4-carbonyl]-3,5-dihydro-2H-pyrido[3,4-f][1,4]oxazepine-9-carbonitrile], the IC50 lay within 100 to 1000 nM.
The same measure, in the same setting: in the case of `CC1(C(=O)N2CCOc3c(C#N)cncc3C2)CCN(c2ncc(F)cn2)CC1` [Example 40, 4-[1-(5-fluoropyrimidin-2-yl)-4-methyl-piperidine-4-carbonyl]-3,5-dihydro-2H-pyrido[3,4-f][1,4]oxazepine-9-carbonitrile] it was 0.1 to 100 nM; in that of `COc1ccnc(N2CCC(C(=O)N3CCOc4c(C#N)cncc4C3)CC2)n1` [Example 117, 4-[1-(4-methoxypyrimidin-2-yl)piperidine-4-carbonyl]-3,5-dihydro-2H-pyrido[3,4-f][1,4]oxazepine-9-carbonitrile], 0.1 to 100 nM.

Still in this assay, the particulars now being: GST-hRIPK1 (8-327), mean of at least two independent experiments.
`O=C(C1CCN(c2ncc(F)cn2)C[C@@H]1F)N1CCOc2c(F)cncc2C1` (some centres unmarked) [Example 247] displayed an IC50 of 0.1 to 100 nM.
Still for that read-out and setting: as for `O=C(C1CCN(c2ncnc(OCC(F)F)n2)CC1)N1CCOc2c(F)cncc2C1` [Example 210, [1-[4-(2,2-difluoroethoxy)-1,3,5-triazin-2-yl]-4-piperidyl]-(9-fluoro-3,5-dihydro-2H-pyrido[3,4-f][1,4]oxazepin-4-yl)methanone], the figure is 100 to 1000 nM; as for `N#Cc1cncc2c1OCCN(C(=O)C1CCN(c3ccnc4c(F)cnn34)CC1F)C2` (single isomer, unassigned) [Example 303, 4-[3-Fluoro-1-(3-fluoropyrazolo[1,5-a]pyrimidin-7-yl)piperidine-4-carbonyl]-3,5-dihydro-2H-pyrido[3,4-f][1,4]oxazepine-9-carbonitrile], 100 to 1000 nM.
Same read-out and setting: as for `O=C(C1CCN(c2nccc3ncnn23)C[C@@H]1F)N1CCOc2c(F)cncc2C1` (some centres unmarked) [Example 255], the figure is 100 to 1000 nM.
In the case of `COc1nc(N2CCC(OC)(C(=O)N3CCOc4c(C#N)cncc4C3)CC2)c(F)cc1F` [Example 289, 4-[1-(3,5-difluoro-6-methoxy-2-pyridyl)-4-methoxy-piperidine-4-carbonyl]-3,5-dihydro-2H-pyrido [3,4-f][1,4]oxazepine-9-carbonitrile], the IC50 fell in the range of 0.1 to 100 nM.
The same measure, in the same setting: as for `N#Cc1cncc2c1OCCN(C(=O)C1CCN(c3ncc(F)cn3)CC1(F)F)C2` (centres unmarked) [Example 243, 4-[3,3-difluoro-1-(5-fluoropyrimidin-2-yl)piperidine-4-carbonyl]-3,5-dihydro-2H-pyrido[3,4-f][1,4]oxazepine-9-carbonitrile], the figure is 100 to 1000 nM; as for `CC(C)(C(=O)N1CCOc2c(C#N)cncc2C1)[C@H]1C[C@@H](Cn2ccnn2)C1` [Example 293, cis-4-[2-methyl-2-[3-(triazol-1-ylmethyl)cyclobutyl]propanoyl]-3,5-dihydro-2H-pyrido [3,4-f][1,4]oxazepine-9-carbonitrile], over 1000 nM; as for `COc1nc(N2CCC(C(=O)N3CCOc4ccncc4C3)CC2)ncc1F` [Example 238], 0.1 to 100 nM.
Same read-out and setting: as for `COc1cc(C(F)(F)F)nc(N2CCC(F)(C(=O)N3CCOc4c(C#N)cncc4C3)CC2)n1` [Example 232, 4-[4-fluoro-1-[4-methoxy-6-(trifluoromethyl)pyrimidin-2-yl]piperidine-4-carbonyl]-3,5-dihydro-2H-pyrido[3,4-f][1,4]oxazepine-9-carbonitrile], the figure is 100 to 1000 nM; as for `COC1(C(=O)N2CCOc3ccncc3C2)CCN(c2ncc(F)cn2)CC1` [Example 234, 3,5-dihydro-2H-pyrido[3,4-f][1,4]oxazepin-4-yl-[1-(5-fluoropyrimidin-2-yl)-4-methoxy-4-piperidyl]methanone], 0.1 to 100 nM; as for `N#Cc1cncc2c1OCCN(C(=O)C1CCN(c3nc(F)c(F)cc3F)CC1)C2` [Example 288, 4-[1-(3,5,6-trifluoro-2-pyridyl)piperidine-4-carbonyl]-3,5-dihydro-2H-pyrido[3,4-f][1,4]oxazepine-9-carbonitrile], 0.1 to 100 nM.

One may read the IC50 as the concentration that gives 50% inhibition. High values mean weaker potency, low ones greater potency.
